Assay results taken from US20240051952A1, “HMOX1 INDUCERS” (Mitobridge Inc., priority 2019, published 2024).

The compounds below were run on Human Heme Oxygenase-1 (HMOX-1) (assay: ELISA assay to measure human heme oxygenase-1 (HMOX-1) in HepG2 lysate). Conditions: fold change of human HMOX1 protein levels relative to DMSO control, HepG2.
Assay type: cell-based
Method: Example 143. ELISA Assay to Measure Human Heme Oxygenase-1 (HMOX-1) in HepG2 lysate
Reagents and Technical Notes:
ELISA capture antibody, standard HO-1, detection antibody and streptavidin HRP were supplied in the DuoSet IC Human total HO-1 ELISA from R&D systems (DYC3776-2). The substrate cocktail was KPL LumiGLO reserve Chemiluminescent Substrate (54-71-00). PBS was Corning Cellgro Cell Culture (21-040-CV). 10×PBS+0.05% tween20 (PBST) was from KPL.
All incubations of the plate were at room temperature (20° C.) in a closed drawer.
The ELISA plate was processed manually. All loadings were with a multichannel pipet. Plates were emptied by shaking into the sink and tapping onto paper towels to remove any remaining reagent. Plate washing was accomplished by loading all wells with PBS+0.05% tween20 (PBST) using a squirt bottle, shaking the PBST out and tapping the plate onto paper towels.
Preparation of the ELISA Plate: • 1. anti-HO-1 capture antibody was 1440 μg/ml after reconstitution in PBS. This antibody was diluted to 8 μg/ml in PBS and 50 μl per well was added to a 384 well greiner “lumitrac 200” plate. Incubated overnight. • 2. The plate was emptied and 100 μl PBS+1% BSA added to all wells. Incubated 90 minutes at room temperature.
Preparation of HepG2 Lysate: • 1. Cells were cultured in a 96-well tissue culture plate washed with PBS and then the plate frozen at −70° C. overnight. Plates were allowed to warm to ice temperature in an ice bucket. 20 μl of PBS, 0.5% Triton X100, 1 mM EDTA with 1×HALT™ protease inhibitors was added to each well and the plates incubated on ice for 1 hour. • 2. The lysates were frozen at −20° C. overnight.
Measurement of HMOX1 (“HO-1”) • 1. In a polypropylene 384 well plate, human HO-1(after reconstitution in PBS+0.5% Triton+1 mM EDTA) was serially diluted from 20 ng/ml 2-fold in PBS+0.5% triton-X100, 1 mM EDTA to make a 12-point standard curve including a zero point. • 2. In a polypropylene 96 well plate, HepG2 lysate was diluted 1 to 20 in Diluent #4 from DUOSET kit in which the assay standard is also diluted. • 3. The PBS+1% BSA was emptied from the ELISA plate and 30 μl of all samples and standards were added (duplicates recommended). The plate was incubated 90 minutes. • 4. Emptied plate and washed 4 times with PBST. • 5. Diluted HO-1 detection antibody to 200 ng/ml in PBS+1% BSA and added 30 μl to all wells. Incubated 90 minutes. • 6. Emptied plate and washed 4 times with PBST. • 7. Added 30 μl streptavidin HRP at 1/200 in PBS+1% BSA (stock streptavidin concentration not specified) to all wells. Incubated 30 minutes. • 8. Emptied plate and washed 4 times with PBST. • 9. Diluted Lumiglo reserve reagent two parts buffer to one part lumiglo substrate. Added 30 μl to all wells. Incubated 5 minutes. • 10. Measured chemiluminescence on spectramax M5 using 150 ms integration.
Table 1 below lists EC50 and fold changes of human HMOX1 protein levels relative to DMSO control upon treatment with representative compounds.

Row | SMILES | Maximum Fold induction
1 | Cn1c(Nc2nc3cc(Cl)ccc3[nH]2)nc2cc(C(=O)O)ccc21 [Example 82, 2-((5-chloro-1H-benzo[d]imidazol-2-yl)amino)-1-methyl-1H-benzo[d]imidazole-5-carboxylic acid] | 29-33
2 | Cn1c(Nc2nc3ccccc3o2)nc2cc(C(=O)C(F)(F)F)ccc21 [Example 139, 1-(2-(benzo[d]oxazol-2-ylamino)-1-methyl-1H-benzo[d]imidazol-5-yl)-2,2,2-trifluoroethan-1-one] | 21
3 | CN(C)CCONC(=O)c1ccc2c(c1)nc(Nc1nc3ccccc3o1)n2C [Example 123, 2-(benzo[d]oxazol-2-ylamino)-N-(2-(dimethylamino)ethoxy)-1-methyl-1H-benzo[d]imidazole-5-carboxamide] | 22
4 | COCCNC(=O)c1ccc2c(c1)nc(Nc1nc3ccc(OC(F)(F)F)cc3o1)n2CCS(C)(=O)=O [Example 90, N-(2-methoxyethyl)-1-(2-(methylsulfonyl)ethyl)-2-((6-(trifluoromethoxy)benzo[d]oxazol-2-yl)amino)-1H-benzo[d]imidazole-5-carboxamide] | 22
5 | Cn1c(Nc2nc3cc(F)c(C(F)(F)F)cc3o2)nc2cc(C(=O)NOCCO)ccc21 [Example 130, 2-((5-fluoro-6-(trifluoromethyl)benzo[d]oxazol-2-yl)amino)-N-(2-hydroxyethoxy)-1-methyl-1H-benzo[d]imidazole-5-carboxamide] | 42
6 | COCCNC(=O)c1ccc2c(c1)nc(Nc1nc3cc(Cl)ccc3[nH]1)n2C [Example 83, 2-((5-chloro-1H-benzo[d]imidazol-2-yl)amino)-N-(2-methoxyethyl)-1-methyl-1H-benzo[d]imidazole-5-carboxamide] | 16-21
7 | COCCNC(=O)c1ccc2c(c1)nc(Nc1nc3cc(OC(F)(F)F)ccc3[nH]1)n2C1CCOCC1 [Example 81, N-(2-methoxyethyl)-1-(tetrahydro-2H-pyran-4-yl)-2-((5-(trifluoromethoxy)-1H-benzo[d]imidazol-2-yl)amino)-1H-benzo[d]imidazole-5-carboxamide] | 19-30
8 | CN(C)CC(=O)NCCNC(=O)c1ccc2c(c1)nc(Nc1nc3ccc(C(F)(F)F)cc3o1)n2C [Example 40, N-(2-(2-(dimethylamino)acetamido)ethyl)-1-methyl-2-((6-(trifluoromethyl)benzo[d]oxazol-2-yl)amino)-1H-benzo[d]imidazole-5-carboxamide] | 56-93
9 | Cn1c(Nc2nc3ccccc3o2)nc2cc(C(N)C(F)(F)F)ccc21 (centres unmarked) [Example 141, N-(5-(1-amino-2,2,2-trifluoroethyl)-1-methyl-1H-benzo[d]imidazol-2-yl)benzo[d]oxazol-2-amine] | 22
10 | CC(O)CNC(=O)c1ccc2c(c1)nc(Nc1nc3ccccc3o1)n2C (centres unmarked) [Example 23, 2-(benzo[d]oxazol-2-ylamino)-N-(2-hydroxypropyl)-1-methyl-1H-benzo[d]imidazole-5-carboxamide] | 25-61
11 | COCCn1c(Nc2nc3cc(OC(F)(F)F)ccc3[nH]2)nc2cc(C(=O)O)ccc21 [Example 75, 1-(2-methoxyethyl)-2-((5-(trifluoromethoxy)-1H-benzo[d]imidazol-2-yl)amino)-1H-benzo[d]imidazole-5-carboxylic acid] | 15-25
12 | Cn1c(Nc2nc3ccccc3o2)nc2cc(C(=O)NCCOCCO)c(F)cc21 [Example 72, 2-(benzo[d]oxazol-2-ylamino)-6-fluoro-N-(2-(2-hydroxyethoxy)ethyl)-1-methyl-1H-benzo[d]imidazole-5-carboxamide] | 31-72
13 | CN(C)CCn1c(Nc2nc3ccc(OC(F)(F)F)cc3o2)nc2cc(C(=O)O)ccc21 [Example 74, 1-(2-(dimethylamino)ethyl)-2-((6-(trifluoromethoxy)benzo[d]oxazol-2-yl)amino)-1H-benzo[d]imidazole-5-carboxylic acid] | 17-28
14 | Cn1c(Nc2nc3cccc(C(F)(F)F)c3o2)nc2cc(C(=O)NCCOCCO)ccc21 [Example 117, N-(2-(2-hydroxyethoxy)ethyl)-1-methyl-2-((7-(trifluoromethyl)benzo[d]oxazol-2-yl)amino)-1H-benzo[d]imidazole-5-carboxamide] | 38
15 | COCCONC(=O)c1ccc2c(c1)nc(Nc1nc3ccccc3o1)n2C [Example 119, 2-(benzo[d]oxazol-2-ylamino)-N-(2-methoxyethoxy)-1-methyl-1H-benzo[d]imidazole-5-carboxamide] | 47-65
16 | CS(=O)(=O)CCn1c(Nc2nc3ccc(OC(F)(F)F)cc3o2)nc2cc(C(=O)O)ccc21 [Example 89, 1-(2-(methylsulfonyl)ethyl)-2-((6-(trifluoromethoxy)benzo[d]oxazol-2-yl)amino)-1H-benzo[d]imidazole-5-carboxylic acid] | 10
17 | Cn1c(Nc2nc3ccc(Cl)cc3o2)nc2cc(C(=O)O)ccc21 [Example 96, 2-((6-chlorobenzo[d]oxazol-2-yl)amino)-1-methyl-1H-benzo[d]imidazole-5-carboxylic acid] | 39-56
18 | CN(C)CCONC(=O)c1ccc2c(c1)nc(Nc1nc3ccc(C(F)(F)F)cc3o1)n2C [Example 122, N-(2-(dimethylamino)ethoxy)-1-methyl-2-((6-(trifluoromethyl)benzo[d]oxazol-2-yl)amino)-1H-benzo[d]imidazole-5-carboxamide] | 51-67

Next, values leading:

Row | Maximum Fold induction | SMILES
19 | 39 | Cn1c(Nc2nc3ccc(C(F)(F)F)cc3o2)nc2cc(C(=O)NCCOCC(C)(C)O)ccc21 [Example 42, N-(2-(2-hydroxy-2-methylpropoxy)ethyl)-1-methyl-2-((6-(trifluoromethyl)benzo[d]oxazol-2-yl)amino)-1H-benzo[d]imidazole-5-carboxamide]
20 | 54-58 | Cn1c(Nc2nc3ccc(OCCO)cc3o2)nc2cc(C(=O)NOCCO)ccc21 [Example 129, N-(2-hydroxyethoxy)-2-((6-(2-hydroxyethoxy)benzo[d]oxazol-2-yl)amino)-1-methyl-1H-benzo[d]imidazole-5-carboxamide]
21 | 37-39 | Cn1c(Nc2nc3ccc(OCCO)cc3o2)nc2cc(C(=O)NCCO)ccc21 [Example 103, 2-((6-(2-hydroxyethoxy)benzo[d]oxazol-2-yl)amino)-N-(2-hydroxyethyl)-1-methyl-1H-benzo[d]imidazole-5-carboxamide]
22 | 1 | CN1CC(c2ccc3nc(Nc4nc5cc(C(=O)NCCOCCO)ccc5n4C)oc3c2)OC1=O (centres unmarked) [Example 135, N-(2-(2-hydroxyethoxy)ethyl)-1-methyl-2-((6-(3-methyl-2-oxooxazolidin-5-yl)benzo[d]oxazol-2-yl)amino)-1H-benzo[d]imidazole-5-carboxamide]
23 | 35-39 | Cn1c(Nc2nc3ccc(C(F)(F)F)cc3o2)nc2cc(C(=O)NCCOCC(=O)O)ccc21 [Example 41, 2-(2-(1-methyl-2-((6-(trifluoromethyl)benzo[d]oxazol-2-yl)amino)-1H-benzo[d]imidazole-5-carboxamido)ethoxy)acetic acid]
24 | 33-37 | Cn1c(Nc2nc3ccc(OC(F)(F)F)cc3o2)nc2cc(C(=O)NOCCO)ccc21 [Example 126, N-(2-hydroxyethoxy)-1-methyl-2-((6-(trifluoromethoxy)benzo[d]oxazol-2-yl)amino)-1H-benzo[d]imidazole-5-carboxamide]
25 | 11-15 | COCCNC(=O)c1ccc2c(c1)nc(Nc1nc3ccc(OC(F)F)cc3o1)n2C [Example 63, 2-((6-(difluoromethoxy)benzo[d]oxazol-2-yl)amino)-N-(2-methoxyethyl)-1-methyl-1H-benzo[d]imidazole-5-carboxamide]
26 | 26-40 | COCCNC(=O)c1ccc2c(c1)nc(Nc1nc3ccc(OCCO)cc3o1)n2C [Example 102, 2-((6-(2-hydroxyethoxy)benzo[d]oxazol-2-yl)amino)-N-(2-methoxyethyl)-1-methyl-1H-benzo[d]imidazole-5-carboxamide]
